For one test, the target named is T1, human GBA2 (Homo sapiens, UniProt Q9HCG7).
T1 construct: cellular homogenate
T1 sequence (Q9HCG7 1-927): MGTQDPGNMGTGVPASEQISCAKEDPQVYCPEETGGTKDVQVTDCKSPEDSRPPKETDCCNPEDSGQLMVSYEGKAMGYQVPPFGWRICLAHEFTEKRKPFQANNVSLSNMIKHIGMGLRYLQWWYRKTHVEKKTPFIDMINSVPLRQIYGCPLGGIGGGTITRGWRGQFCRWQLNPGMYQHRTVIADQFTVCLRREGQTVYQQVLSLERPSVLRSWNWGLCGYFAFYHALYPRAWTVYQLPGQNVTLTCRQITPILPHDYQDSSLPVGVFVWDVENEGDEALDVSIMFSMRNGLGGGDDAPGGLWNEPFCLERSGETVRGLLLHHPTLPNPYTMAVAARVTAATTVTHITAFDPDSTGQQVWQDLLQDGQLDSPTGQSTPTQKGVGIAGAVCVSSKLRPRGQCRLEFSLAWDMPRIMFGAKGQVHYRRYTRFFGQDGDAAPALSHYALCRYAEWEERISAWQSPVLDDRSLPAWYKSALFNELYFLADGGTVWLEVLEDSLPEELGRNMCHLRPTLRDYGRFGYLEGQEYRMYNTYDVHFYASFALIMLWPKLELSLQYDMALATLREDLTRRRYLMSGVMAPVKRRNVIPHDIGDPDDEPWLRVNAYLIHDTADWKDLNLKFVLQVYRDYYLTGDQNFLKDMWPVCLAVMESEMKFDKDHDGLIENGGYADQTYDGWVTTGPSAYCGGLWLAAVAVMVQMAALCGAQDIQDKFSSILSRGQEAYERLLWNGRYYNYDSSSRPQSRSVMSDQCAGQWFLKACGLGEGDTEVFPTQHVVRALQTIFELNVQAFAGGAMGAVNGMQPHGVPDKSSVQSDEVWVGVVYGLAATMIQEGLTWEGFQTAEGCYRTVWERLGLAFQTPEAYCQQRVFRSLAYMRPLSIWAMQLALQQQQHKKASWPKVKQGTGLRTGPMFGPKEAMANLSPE
As to the kind of experiment: Inhibition of GBA2 in cell lysate (4-methylumbelliferone-β-D glucopyranoside substrate). The test is classed as biochemical. The settings on record: homogenate of HEK293T cells stably overexpressing human GBA2, pH 5.5, 37° C., GCase inhibitor present. On the procedure: Stable GBA2-expressing HEK293T cells were generated as follows. The PCR-amplified human GBA2 (GBA2 nucleotide accession number BC011363) using the following primers: Sense 5’---CGCAAATGGGCGGTAGGCGTG---3’ and antisense 5’---TAGTCAGCCATGGGGCGGAGA ---3’) was cloned into pLenti-GIII-CMV by ABM Inc. The correctness of the construct was verified by sequencing. Lentivirus particles containing GBA2 in the pLenti-GIII-CMV plasmid were prepared using a third Generation Virus Packaging Mix (ABM cat# LV053-G074) in HEK293T cells and supplied as a virus particle suspension. The virus suspension was used for infection of HEK293T cells. Cell populations stably expressing human GBA2 were selected using puromycin for several weeks as determined by activity assays and western blot.
Various concentrations of test compounds were prepared in DMSO and then diluted into buffer consisting of 100 mM citric acid, 200 mM disodium phosphate with 1% v/v C10E6, pH 5.5. Cellular homogenates (0.25 mg/mL) of the stable HEK293T-overexpressing GBA2 cell line were preincubated for 10 min on ice with an inhibitor of GCase (20 µM (6R,7R,8S)-8-ethyl-4-azaspiro[2.5]octane-6,7-diol). The reaction solution consisted of 20 µL of 750 µM 4-methylumbelliferone-β-D glucopyranoside in 5% DMSO in the same buffer, 20 µL of GBA2-cellular homogenate pre-treated with (6R,7R,8S)-8-ethyl-4-azaspiro[2.5]octane-6,7-diol and 20 µL of various concentrations of test compound in 10% DMSO in the same buffer. The final concentrations in the reaction were 0.083 mg/mL GBA2-cellular homogenate, 250 µM 4-methylumbelliferone-β-D glucopyranoside, and various concentrations of inhibitor. The inhibitor and GBA2-cellular homogenate were preincubated together for 5 min at 37° C. The reaction was initiated by addition of substrate and allowed to proceed for 20 min at 37° C. to assess GBA2 activity. Reactions were stopped by the addition of an equal volume (60 µL) of 0.5 M NaOH, 0.3 M glycine, pH 10.5. Fluorescence was measured on a Biotek Synergy H4 plate reader at wavelengths of 365 nm for excitation and 450 nm for emission. Incubations without added enzyme or added inhibitors were used to define no enzyme activity and maximal enzyme activity, respectively. IC50 values were determined by fitting the data to a log[inhibitor concentration] versus response curve using GraphPad Prism. IC50 values were calculated as the concentration of inhibitor required to inhibit GBA2 activity by 50%.

Test [1] has as its target T2, human non-lysosomal glucosylceramidase (GBA2) (Homo sapiens, UniProt Q9HCG7).
T2 sequence (Q9HCG7 1-927): T1 sequence (Q9HCG7 1-927)
As to the kind of experiment: Binding specificity for GBA2 over other molecules (ratio of Ki or IC50 values). It is filed as biochemical. Particulars: qualitative statement, no values or other enzyme given. The source says:
In some embodiments, one or more of the compounds according to the invention may specifically bind a GBA2. In alternative embodiments, one or more of the compounds according to the invention may specifically bind the active site of a GBA2. […] In alternative embodiments, one or more of the compounds according to the invention may specifically bind the human non-lysosomal glucosylceramidase (GBA2) over the human lysosomal glucosylceramidase (GCase) and/or the human cytosolic glucosylceramidase (GBA3). In alternative embodiments, one or more of the compounds according to the invention may specifically bind the human non-lysosomal glucosylceramidase (GBA2) over the human glucosylceramide synthase (GCS). In alternative embodiments, one or more of the compounds according to the invention may specifically bind the human non-lysosomal glucosylceramidase (GBA2) over an intestinal alpha-glucosidase, where the intestinal alpha-glucosidase may be a sucrase-isomaltase or a maltase-glucoamylase.

`OC[C@H]1[C@@H](O)[C@H](O)[C@@H](O)CN1CCc1ccc(-c2ccccc2)cc1` [Example 20, (2S,3R,4R,5S)-1-(2-([1,1′-biphenyl]-4-yl)ethyl)-2-(hydroxymethyl)piperidine-3,4,5-triol]: on human GBA2, the “GBA2 IC50” value was “∗∗∗”. For the same molecule, the “binding specificity, Ki(other molecule)/Ki(GBA2) or IC50(other molecule)/IC50(GBA2)” value (from here on “binding specificity”) in test [1] is “enhanced binding specificity”.
Take `OC[C@H]1[C@@H](O)[C@H](O)[C@@H](O)CN1CCc1c(F)cc(C2CCOCC2)cc1F` [Example 21, (2S,3R,4R,5S)-1-(2,6-difluoro-4-(tetrahydro-2H-pyran-4-yl)phenethyl)-2-(hydroxymethyl)piperidine-3,4,5-triol]: the “GBA2 IC50” value on human GBA2 was “∗∗∗”. Moreover, in test [1], the “binding specificity” value was “enhanced binding specificity”.
For `CCCCOc1ccc(CCN2C[C@H](O)[C@@H](O)[C@H](O)[C@@H]2CO)cc1` [Example 22, (2S,3R,4R,5S)-1-(4-butoxyphenethyl)-2-(hydroxymethyl)piperidine-3,4,5-triol], in that order: “∗∗∗” and “enhanced binding specificity”.
Take `CCCCOc1cc(F)c(CCN2C[C@H](O)[C@@H](O)[C@H](O)[C@@H]2CO)c(F)c1` [Example 23, (2S,3R,4R,5S)-1-(4-butoxy-2,6-difluorophenethyl)-2-(hydroxymethyl)piperidine-3,4,5-triol]: at human GBA2, the “GBA2 IC50” value is recorded as “∗∗∗”. In addition, in test [1], the “binding specificity” value is “enhanced binding specificity”.
Consider `OC[C@H]1[C@@H](O)[C@H](O)[C@@H](O)CN1CC1CCN(c2ccc(F)cc2)CC1` [Example 24, (2S,3R,4R,5S)-1-((1-(4-fluorophenyl)piperidin-4-yl)methyl)-2-(hydroxymethyl)piperidine-3,4,5-triol], for which the “GBA2 IC50” value at human GBA2 was “∗∗∗”. Further, in test [1], the “binding specificity” value is recorded as “enhanced binding specificity”.
For `OC[C@H]1[C@@H](O)[C@H](O)[C@@H](O)CN1C[C@H]1CCN(c2ncccc2C(F)(F)F)C1` [Example 25, (2S,3R,4R,5S)-2-(hydroxymethyl)-1—(((R)—1-(3-(trifluoromethyl)pyridin-2-yl)pyrrolidin-3-yl)methyl)piperidine-3,4,5-triol], at human GBA2, the “GBA2 IC50” value was “∗∗∗”. Also, the “binding specificity” value in test [1] is given as “enhanced binding specificity”.
Take `OC[C@H]1[C@@H](O)[C@H](O)[C@@H](O)CN1C[C@@H]1CCN(c2ncccc2C(F)(F)F)C1` [Example 27, (2S,3R,4R,5S)-2-(hydroxymethyl)-1—(((S)—1-(3-(trifluoromethyl)pyridin-2-yl)pyrrolidin-3-yl)methyl)piperidine-3,4,5-triol]: at human GBA2, the “GBA2 IC50” value was “∗∗∗”. In test [1], the “binding specificity” value is “enhanced binding specificity”.
Take `OC[C@H]1[C@@H](O)[C@H](O)[C@@H](O)CN1C[C@@H]1CCN(c2nc(C(F)(F)F)cs2)C1` [Example 28, (2S,3R,4R,5S)-2-(hydroxymethyl)-1—(((S)—1-(4-(trifluoromethyl)thiazol-2-yl)pyrrolidin-3-yl)methyl)piperidine-3,4,5-triol]: the “GBA2 IC50” value at human GBA2 is “∗∗∗”. For the same molecule, in test [1], the “binding specificity” value is listed as “enhanced binding specificity”.
As for `OC[C@H]1[C@@H](O)[C@H](O)[C@@H](O)CN1C[C@H]1CCCN(c2ncccc2C(F)(F)F)C1` [Example 29, (2S,3R,4R,5S)-2-(hydroxymethyl)-1—(((R)—1-(3-(trifluoromethyl)pyridin-2-yl)piperidin-3-yl)methyl)piperidine-3,4,5-triol], the “GBA2 IC50” value on human GBA2 was “∗∗∗”. Further, the “binding specificity” value in test [1] is listed as “enhanced binding specificity”.
On to `OC[C@H]1[C@@H](O)[C@H](O)[C@@H](O)CN1C[C@@H]1CCCN(c2ncccc2C(F)(F)F)C1` [Example 31, (2S,3R,4R,5S)-2-(hydroxymethyl)-1—(((S)—1-(3-(trifluoromethyl)pyridin-2-yl)piperidin-3-yl)methyl)piperidine-3,4,5-triol], for which the “GBA2 IC50” value at human GBA2 was “∗∗∗”. Also, the “binding specificity” value in test [1] was “enhanced binding specificity”.
Turning to `OC[C@H]1[C@@H](O)[C@H](O)[C@@H](O)CN1C[C@@H]1CCCN(c2nc(C(F)(F)F)cs2)C1` [Example 32, (2S,3R,4R,5S)-2-(hydroxymethyl)-1—(((S)—1-(4-(trifluoromethyl)thiazol-2-yl)piperidin-3-yl)methyl)piperidine-3,4,5-triol], the “GBA2 IC50” value at human GBA2 was “∗∗∗”. Besides, the “binding specificity” value in test [1] is listed as “enhanced binding specificity”.
For `OC[C@H]1[C@@H](O)[C@H](O)[C@@H](O)CN1C[C@H]1CC[C@@H](C(F)F)CC1` [Example 311, (2S,3R,4R,5S)-1-(((1s,4R)-4-(difluoromethyl)cyclohexyl)methyl)-2-(hydroxymethyl)piperidine-3,4,5-triol], the “GBA2 IC50” value on human GBA2 is listed as “∗∗∗”. Besides, the “binding specificity” value in test [1] was “enhanced binding specificity”.
Take `OC[C@H]1[C@@H](O)[C@H](O)[C@@H](O)CN1C[C@H]1CC[C@H](C(F)F)CC1` [Example 312, (2S,3R,4R,5S)-1-(((1r,4S)-4-(difluoromethyl)cyclohexyl)methyl)-2-(hydroxymethyl)piperidine-3,4,5-triol]: at human GBA2, the “GBA2 IC50” value is given as “∗∗∗”. Also, in test [1], the “binding specificity” value is reported as “enhanced binding specificity”.
For `CC(F)(F)[C@H]1CC[C@@H](CN2C[C@H](O)[C@@H](O)[C@H](O)[C@@H]2CO)CC1` [Example 313, (2S,3R,4R,5S)-1-(((1s,4R)-4-(1,1-difluoroethyl)cyclohexyl)methyl)-2-(hydroxymethyl)piperidine-3,4,5-triol], in that order: “∗∗∗” and “enhanced binding specificity”.
Take `CC(F)(F)[C@H]1CC[C@H](CN2C[C@H](O)[C@@H](O)[C@H](O)[C@@H]2CO)CC1` [Example 314, (2S,3R,4R,5S)-1-(((1r,4S)-4-(1,1-difluoroethyl)cyclohexyl)methyl)-2-(hydroxymethyl)piperidine-3,4,5-triol]: the “GBA2 IC50” value at human GBA2 is “∗∗∗”. The “binding specificity” value in test [1] is listed as “enhanced binding specificity”.

The values above are taken from patent publication US20230174486A1, “NON-LYSOSOMAL GLUCOSYLCERAMIDASE INHIBITORS AND USES THEREOF” (ALECTOS THERAPEUTICS lNC., priority 2020, published 2023).
